# The source made the active and inactive calls. No rule for the calls is given here.
# Tested on: CCRIS mutagenicity, Ames/micronucleus/aberration tests
# Assay: CCRIS mutagenicity studies
# [1] = Test System: AMES SALMONELLA TYPHIMURIUM, Strain/Indicator: TA1535, Metabolic Activation: NONE, Method: STANDARD PLATE
# [2] = Test System: AMES SALMONELLA TYPHIMURIUM, Strain/Indicator: TA1537, Metabolic Activation: NONE, Method: STANDARD PLATE
# [3] = Test System: AMES SALMONELLA TYPHIMURIUM, Strain/Indicator: TA98, Metabolic Activation: NONE, Method: STANDARD PLATE
# [4] = Test System: AMES SALMONELLA TYPHIMURIUM, Strain/Indicator: TA100, Metabolic Activation: NONE, Method: STANDARD PLATE
# [5] = Test System: AMES SALMONELLA TYPHIMURIUM, Strain/Indicator: TA98, Metabolic Activation: RAT, LIVER, S-9, AROCLOR 1254, Method: STANDARD PLATE
# [6] = Test System: AMES SALMONELLA TYPHIMURIUM, Strain/Indicator: TA100, Metabolic Activation: RAT, LIVER, S-9, AROCLOR 1254, Method: STANDARD PLATE
# [7] = Test System: AMES SALMONELLA TYPHIMURIUM, Strain/Indicator: TA1535, Metabolic Activation: RAT, LIVER, S-9, AROCLOR 1254, Method: STANDARD PLATE
# [8] = Test System: AMES SALMONELLA TYPHIMURIUM, Strain/Indicator: TA1537, Metabolic Activation: RAT, LIVER, S-9, AROCLOR 1254, Method: STANDARD PLATE
# [9] = Test System: AMES SALMONELLA TYPHIMURIUM, Strain/Indicator: TA1538, Metabolic Activation: NONE, Method: STANDARD PLATE
# [10] = Test System: AMES SALMONELLA TYPHIMURIUM, Strain/Indicator: TA1538, Metabolic Activation: RAT, LIVER, S-9, AROCLOR 1254, Method: STANDARD PLATE
structure (smiles),measurement,setting,value
COc1cccc(CN(C)N=O)c1,mutagenic call,"Test System: AMES SALMONELLA TYPHIMURIUM, Strain/Indicator: TA1535, Metabolic Activation: HAMSTER, LIVER, S-9, AROCLOR 1254, Method: STANDARD PLATE",active; positive
same,mutagenic call,[1],inactive; negative
CN(C)CCNC(=O)c1cccc2ncc(-c3ccccc3)nc12,mutagenic call,[2],active; positive
CCCCNc1snc2ccccc12,mutagenic call,[3],inactive; negative
same,mutagenic call,"Test System: AMES SALMONELLA TYPHIMURIUM, Strain/Indicator: TA98, Metabolic Activation: S-9, Method: STANDARD PLATE",inactive; negative
same,mutagenic call,[4],inactive; negative
same,mutagenic call,"Test System: AMES SALMONELLA TYPHIMURIUM, Strain/Indicator: TA100, Metabolic Activation: S-9, Method: STANDARD PLATE",inactive; negative
same,mutagenic call,[1],inactive; negative
same,mutagenic call,"Test System: AMES SALMONELLA TYPHIMURIUM, Strain/Indicator: TA1535, Metabolic Activation: S-9, Method: STANDARD PLATE",inactive; negative
same,mutagenic call,[2],inactive; negative
same,mutagenic call,"Test System: AMES SALMONELLA TYPHIMURIUM, Strain/Indicator: TA1537, Metabolic Activation: S-9, Method: STANDARD PLATE",inactive; negative
c1ccc2c(c1)ccc1nc3c4c(c5ccccc5c3cc12)O4,mutagenic call,"Test System: AMES SALMONELLA TYPHIMURIUM, Strain/Indicator: TA100, Metabolic Activation: GUINEA PIG, LIVER, S-9, 3-METHYLCHOLANTHRENE, Method: STANDARD PLATE",active; positive
O=NN(CC(=O)O)CC1(O)OCC(O)C(O)C1O (stereo unspecified),mutagenic call,[3],inactive; negative
same,mutagenic call,"Test System: AMES SALMONELLA TYPHIMURIUM, Strain/Indicator: TA98, Metabolic Activation: RAT, LIVER, S-9, AROCLOR 1254, Method: PREINCUBATION",inactive; negative
same,mutagenic call,[5],inactive; negative
same,mutagenic call,[4],inactive; negative
same,mutagenic call,"Test System: AMES SALMONELLA TYPHIMURIUM, Strain/Indicator: TA100, Metabolic Activation: RAT, LIVER, S-9, AROCLOR 1254, Method: PREINCUBATION",inactive; negative
same,mutagenic call,[6],inactive; negative
same,mutagenic call,[1],inactive; negative
same,mutagenic call,[7],inactive; negative
same,mutagenic call,[2],inactive; negative
same,mutagenic call,[8],inactive; negative
same,mutagenic call,[9],inactive; negative
same,mutagenic call,[10],inactive; negative
[Cd],mutagenic call,[3],inactive; negative
same,mutagenic call,"Test System: AMES SALMONELLA TYPHIMURIUM, Strain/Indicator: TA98, Metabolic Activation: RAT, LIVER, S-9, PHENOBARBITAL, Method: STANDARD PLATE",inactive; negative
same,mutagenic call,"Test System: AMES SALMONELLA TYPHIMURIUM, Strain/Indicator: TA102, Metabolic Activation: NONE, Method: STANDARD PLATE",active; positive
same,mutagenic call,"Test System: AMES SALMONELLA TYPHIMURIUM, Strain/Indicator: TA102, Metabolic Activation: RAT, LIVER, S-9, PHENOBARBITAL, Method: STANDARD PLATE",inactive; negative
same,mutagenic call,[1],inactive; negative
same,mutagenic call,"Test System: AMES SALMONELLA TYPHIMURIUM, Strain/Indicator: TA1535, Metabolic Activation: RAT, LIVER, S-9, PHENOBARBITAL, Method: STANDARD PLATE",inactive; negative
same,mutagenic call,[2],inactive; negative
same,mutagenic call,"Test System: AMES SALMONELLA TYPHIMURIUM, Strain/Indicator: TA1537, Metabolic Activation: RAT, LIVER, S-9, PHENOBARBITAL, Method: STANDARD PLATE",inactive; negative
Cc1ccc(NCCO)cc1O,mutagenic call,[3],inactive; negative
same,mutagenic call,[5],inactive; negative
same,mutagenic call,[4],inactive; negative
same,mutagenic call,[6],inactive; negative
same,mutagenic call,[1],inactive; negative
same,mutagenic call,[7],inactive; negative
same,mutagenic call,[2],inactive; negative
same,mutagenic call,[8],inactive; negative
same,mutagenic call,[9],inactive; negative
same,mutagenic call,[10],inactive; negative
same,mutagenic call,"Test System: MOUSE LYMPHOMA, Strain/Indicator: L5178Y (TK+/TK-), Metabolic Activation: NONE, Method: SUSPENSION/PLATE",inactive; negative
same,mutagenic call,"Test System: UDS HUMAN CELLS, Strain/Indicator: THY INCORP, Metabolic Activation: NONE, Method: LIQUID SCINTILLATION COUNTING",inactive; negative
same,mutagenic call,"Test System: UDS HUMAN CELLS, Strain/Indicator: THY INCORP, Metabolic Activation: RAT, LIVER, S-9, PHENOBARBITAL AND BETA-NAPHTHOFLAVONE, Method: LIQUID SCINTILLATION COUNTING",inactive; negative
c1ccc(N=Nc2ccccc2)cc1,mutagenic call,"Test System: AMES SALMONELLA TYPHIMURIUM, Strain/Indicator: TA100, Metabolic Activation: NONE, Method: PREINCUBATION",inactive; negative
same,mutagenic call,"Test System: AMES SALMONELLA TYPHIMURIUM, Strain/Indicator: TA100, Metabolic Activation: RAT, LIVER, MICROSOMES, AROCLOR 1254, Method: PREINCUBATION",active; positive
same,mutagenic call,"Test System: AMES SALMONELLA TYPHIMURIUM, Strain/Indicator: TA100, Metabolic Activation: RAT, LIVER, MICROSOMES, AZOBENZENE, Method: PREINCUBATION",inactive; negative
same,mutagenic call,"Test System: AMES SALMONELLA TYPHIMURIUM, Strain/Indicator: TA100, Metabolic Activation: RAT, LIVER, MICROSOMES, Method: PREINCUBATION",inactive; negative
same,mutagenic call,[6],active; positive
same,mutagenic call,"Test System: AMES SALMONELLA TYPHIMURIUM, Strain/Indicator: TA100, Metabolic Activation: RAT, LIVER, S-9, POLYCHLORINATED BIPHENYLS, Method: PREINCUBATION",active; positive
